What was measured:
[1] = molecular target: T1, EP1 receptors (PGE2 -induced contractions of the ileum) (Cavia porcellus, UniProt A0A286XHJ6); experiment: Test (a): in-vitro guinea pig ileum assay, inhibition of PGE2-induced contractions; type: cell-based; conditions: PGE2-induced contraction, read-out: pA2 value (converted)
T1 construct: ileum was immersed in oxygenated Krebs solution; from tissue; host or cells: guinea pig ileum
T1 sequence (A0A286XHJ6 1-405): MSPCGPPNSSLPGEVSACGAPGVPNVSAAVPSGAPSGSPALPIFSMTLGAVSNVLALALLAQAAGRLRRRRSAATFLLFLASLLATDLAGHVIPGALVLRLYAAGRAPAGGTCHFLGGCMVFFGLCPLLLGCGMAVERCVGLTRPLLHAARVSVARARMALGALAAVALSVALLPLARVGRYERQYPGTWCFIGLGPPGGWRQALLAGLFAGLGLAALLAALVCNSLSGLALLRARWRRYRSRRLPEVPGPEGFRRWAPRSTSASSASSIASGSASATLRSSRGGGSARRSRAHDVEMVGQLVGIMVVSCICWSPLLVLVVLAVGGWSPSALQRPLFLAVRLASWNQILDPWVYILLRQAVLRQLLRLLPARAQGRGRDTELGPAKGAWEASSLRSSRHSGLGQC
Experimental: (a) an in-vitro guinea pig ileum assay which assesses the inhibitory properties of a test compound against PGE2 -induced contractions of the ileum; ileum was immersed in oxygenated Krebs solution containing indomethacin (4 μg/ml) and atropine (1 μM) and which was maintained at 37° C.; the ileum was subject to a tension of 1 g; a control dose response curve for PGE2 -induced contraction of the ileum was obtained; test compound (dissolved in dimethylsulphoxide) was added to the Krebs solution and a dose response curve for the PGE2 - induced contraction of the ileum in the presence of the test compound was obtained; the pA2 value for the test compound was calculated;
Prostanoid receptors and in particular receptors for PGE2 have been tentatively characterised by Kennedy et al. (Advances in Prostaglandin, Thromboxane and Leukotriene Research, 1983, 11, 327).

[2] = system: abdominal constriction induced by the intraperitoneal administration of phenylbenzoquinone; experiment: Test (b): in-vivo assay in mice, PBQ-induced abdominal constriction; conditions: 100 mg/kg, oral dosing
Excerpt: (b) an in-vivo assay in mice which assesses the inhibitory properties of a test compound against abdominal constriction induced by the intraperitoneal administration of phenylbenzoquinone (hereinafter PBQ) using the procedure disclosed in European Patent Application No. 0218077.

PGE2 receptors = conditions: guinea pig ileum or dog fundus; cited from earlier work

Kb [1]	SMILES	activity in Test (b) [2]	effect on PGE2 action (PGE2 receptors)
31.6 nM	O=C(O)c1ccc(CN2Cc3ccccc3Oc3ccc(Cl)cc32)s1 [5-(8-chloro-10,11-dihydrodibenzo[b,f][1,4]oxazepin-10-ylmethyl)thiophene-2-carboxylic acid]		
25.1 nM	O=C(O)c1ccc(CN2Cc3ccccc3Nc3ccccc32)s1 [5-(10,11-dihydrodibenzo[b,e][1,4]diazepin-10-ylmethyl)thiophene-2-carboxylic acid]	significant activity	
	CC(=O)NNC(=O)N1Cc2ccccc2Oc2ccc(Cl)cc21 [SC-19220]		blocks the effect of PGE2
